Article PMC8001250 (Biomolecules, 2021)
Converted amounts (≈) assume the structure as drawn. “Also recorded” adds a separate entry of the source. Read-outs that look alike come from different tables or passages of the source. Non-standard residues stand in square brackets, D forms with d. Residues, ends and D or L forms follow the SMILES beside them. Ala(azulen-1-yl) = N[C@@H](Cc1ccc2cccccc1-2)C(=O)O

Assays:
S. aureus ATCC 35556 [1] = assay type: cell-based; details: ATCC 35556, 18 h
Description: (§1) Bacteria were streaked from frozen glycerol stocks onto LB agar plates (E. coli D31, S. aureus ATCC 35556, P. aeruginosa PA-01, A. baumannii ATCC 19609). The plates were incubated at 37 °C for ~18 h to allow growth. An individual colony from each plate was transferred into individual sterile tubes containing 3 mL of Muller Hinton (MH) broth and subsequently incubated for 18 h with shaking (225 rpm) at 37 °C. An aliquot of this culture was then diluted with fresh MH broth (1:250) and further incubated with shaking (225 rpm) at 37 °C until an OD600 of 0.2–0.4 was reached. This mid-log culture was then diluted to 5 × 10^5 CFU/mL in fresh MH broth. Serially diluted peptides were dispensed in a 96-well plate such that the final concentration in each well would be in the range of 15 µM to 0.234 µM. Then, 90 µL of the freshly diluted culture was transferred to the 96-well plate, yielding a final volume of 100 µL. The 96-well plate was covered and transferred to a humidified incubator at 37 °C for 18 h. The growth and inhibition of bacterial growth were determined by measuring OD600 directly in the plate and comparing to an untreated control. The Minimum Bactericidal Concentration (MBC) was determined by transferring 1 µL of culture from each well of the MIC plate onto fresh LB agar plates and allowed to incubate overnight at 37 °C.

P. aeruginosa PA-01 [2] = assay type: cell-based; details: PA-01, 18 h
Description: as §1

A. baumannii ATCC 19609 [3] = assay type: cell-based; details: ATCC 19609, 18 h
Description: as §1

trypsin = trypsin (50 µL of 0.001 mg/mL solution) in buffer (50 mM sodium phosphate, 100 mM NaCl, pH 7.0); details: room temperature, up to 4 hours
A. baumannii ATCC 19609 [4] = details: previously reported activity of the parent peptide; ref [30]; cited from earlier work
Description: Table 2 Bacterial growth inhibition/killing concentration (µM). | column: A. baumannii

P. aeruginosa PA-01 [5] = details: previously reported activity of the parent peptide; ref [30]; cited from earlier work
Description: Table 2 Bacterial growth inhibition/killing concentration (µM). | column: P. aeruginosa

S. aureus ATCC 35556 [6] = details: previously reported activity of the parent peptide; ref [30]; cited from earlier work
Description: Table 2 Bacterial growth inhibition/killing concentration (µM). | column: S. aureus

E. coli D31 = details: previously reported activity of the parent peptide; ref [30]; cited from earlier work
Description: Table 2 Bacterial growth inhibition/killing concentration (µM). | column: E. coli

Compound	MBC, S. aureus (S. aureus ATCC 35556 [1]) [µM]	MIC, S. aureus (S. aureus ATCC 35556 [1]) [µM]	MBC, P. aeruginosa (P. aeruginosa PA-01 [2]) [µM]	MIC, P. aeruginosa (P. aeruginosa PA-01 [2]) [µM]	MBC, A. baumannii (A. baumannii ATCC 19609 [3]) [µM]	MIC, A. baumannii (A. baumannii ATCC 19609 [3]) [µM]	fragment found (trypsin)	MBC, A. baumannii (A. baumannii ATCC 19609 [4]) [µM]	MIC, A. baumannii (A. baumannii ATCC 19609 [4]) [µM]	MBC, P. aeruginosa (P. aeruginosa PA-01 [5]) [µM]	MIC, P. aeruginosa (P. aeruginosa PA-01 [5]) [µM]	MBC, S. aureus (S. aureus ATCC 35556 [6]) [µM]	MIC, S. aureus (S. aureus ATCC 35556 [6]) [µM]	MBC, E. coli (E. coli D31) [µM]	MIC, E. coli (E. coli D31) [µM]
CC[C@H](C)[C@H](NC(=O)[C@H](Cc1c[nH]c2ccccc12)NC(=O)[C@@H](NC(=O)[C@H](Cc1c[nH]c2ccccc12)NC(=O)[C@@H]1CCCN1C(=O)[C@@H](NC(=O)[C@H](C)N)[C@@H](C)CC)[C@@H](C)CC)C(=O)N[C@@H](Cc1ccc2cccccc1-2)C(=O)N[C@@H](CCCNC(=N)N)C(=O)N[C@@H](CC(C)C)C(=O)N[C@@H](CC(C)C)C(=O)N[C@@H](CCCNC(=N)N)C(=O)N[C@@H](CCCCN)C(=O)NCC(N)=O [Peptide Z8] (H-AIPWIWI[Ala(azulen-1-yl)]RLLRKG-NH2)	15.00 (≈ 27.3 µg/mL)	7.50 (≈ 13.6 µg/mL)	>15	>15	7.50 (≈ 13.6 µg/mL)	7.50 (≈ 13.6 µg/mL)	–	–	–	–	–	–	–	–	–
CC[C@H](C)[C@H](NC(=O)[C@H](Cc1c[nH]c2ccccc12)NC(=O)[C@@H](NC(=O)[C@H](Cc1ccc2cccccc1-2)NC(=O)[C@@H]1CCCN1C(=O)[C@@H](NC(=O)[C@H](C)N)[C@@H](C)CC)[C@@H](C)CC)C(=O)N[C@@H](Cc1c[nH]c2ccccc12)C(=O)N[C@@H](CCCNC(=N)N)C(=O)N[C@@H](CC(C)C)C(=O)N[C@@H](CC(C)C)C(=O)N[C@@H](CCCNC(=N)N)C(=O)N[C@@H](CCCCN)C(=O)NCC(N)=O [Peptide Z4] (H-AIP[Ala(azulen-1-yl)]IWIWRLLRKG-NH2)	7.50 (≈ 13.6 µg/mL)	7.50 (≈ 13.6 µg/mL)	>15	>15	7.50 (≈ 13.6 µg/mL)	7.50 (≈ 13.6 µg/mL)	–	–	–	–	–	–	–	–	–
AIPWIWIWRLLRKG	–	–	–	–	–	–	AIPWIWIWR; also recorded: AIPWIWIWRLLR	–	–	–	–	–	–	–	–
CC[C@H](C)[C@H](NC(=O)[C@H](Cc1ccc2cccccc1-2)NC(=O)[C@@H](NC(=O)[C@H](Cc1c[nH]c2ccccc12)NC(=O)[C@@H]1CCCN1C(=O)[C@@H](NC(=O)[C@H](C)N)[C@@H](C)CC)[C@@H](C)CC)C(=O)N[C@@H](Cc1c[nH]c2ccccc12)C(=O)N[C@@H](CCCNC(=N)N)C(=O)N[C@@H](CC(C)C)C(=O)N[C@@H](CC(C)C)C(=O)N[C@@H](CCCNC(=N)N)C(=O)N[C@@H](CCCCN)C(=O)NCC(N)=O [Peptide Z6] (H-AIPWI[Ala(azulen-1-yl)]IWRLLRKG-NH2)	1.88 (≈ 3.42 µg/mL)	1.88 (≈ 3.42 µg/mL)	>15	>15	7.50 (≈ 13.6 µg/mL)	3.75 (≈ 6.82 µg/mL)	–	–	–	–	–	–	–	–	–
H-AIPWIWIWRLLRKG-NH2 [WWW]	–	–	–	–	–	–	–	3.75	3.75	>15	15.00	3.75	3.75	7.50	7.50
